Data from publication PMC7913927, “Leishmanicidal Activity of Betulin Derivatives in Leishmania amazonensis; Effect on Plasma and Mitochondrial Membrane Potential, and Macrophage Nitric Oxide and Superoxide Production” (Microorganisms, 2021).
Entries after “also recorded” stand apart in the source; their conditions may differ.

Assays:
[1] = test system: L. (L.) amazonensis LTB0016, VE98MR and VE2000MM promastigotes; assay: Plasma membrane potential (ΔΨp), bisoxonol fluorescence; assay type: cell-based, Leishmania amazonensis; settings: promastigotes of LTB0016, VE98MR, VE2000MM; 15 min; 18: 1 and 2 µM; vs untreated
Method: To evaluate the plasma membrane potential (ΔΨp), the fluorescent compound, bisoxonol, bis[1,3-diethylthiobarbituric acid] trimethine oxonol, was used, as well as a method optimized by Padrón-Nieves et al.. Initially, calibration curves for each strain, using increasing concentrations of KCl (0.5 to 75 mM), were performed in the late log growth phase Leishmania promastigotes in the presence of the potassium ionophore valinomycin. By this procedure, fluorescence values could be transformed into millivolts (mV), applying the Nernst equation, ΔΨp = −59.4 log(120/[KCl]). […] After 10 min of incubation in the dark, fluorescence was measured in a Victor^2 Wallac spectrofluorometer (Perkin Elmer, Turku, Finland), using the appropriate wavelengths (ex: 540 nm/em: 580 nm). […] Once the corresponding calibration curve for each strain was obtained, the effect of compounds on the ΔΨp was evaluated. […] After 10 min of incubation in the dark, fluorescence was measured, using the appropriate wavelengths (ex: 540 nm/em: 580 nm). […] To transform the fluorescence values in millivolts (mV), calibration curves were prepared using increasing concentrations of KCl (0.5, 1.15, 2.5, 5, 10, 20, 40, and 75 mM). […]

[2] = test system: L. (L.) amazonensis LTB0016 promastigotes; assay: Promastigote in vitro susceptibility (Alamar Blue/resazurin), reference strain; assay type: cell-based, Leishmania amazonensis; settings: LTB0016, 50 µM
Method: The fluorometric method of Alamar Blue® (resazurin) was used. Promastigotes grown in biphasic agar-blood medium, at the exponential phase of growth, were seeded in flat-bottom 96-well culture plates, at a cell density of 1 × 10^6 parasites mL^−1 (200,000 parasites/well), in 180 µL of RPMIc without phenol red. Subsequently, either a sole concentration (50 µM), or increasing concentrations of compounds or drugs were applied, according to each treatment group, in volumes of 2 µL. Plates were kept at 26 °C, in a humid chamber, for 72 h. […] Live parasites are metabolically active and capable of reducing non-fluorescent resazurin (blue) to fluorescent resorufin (red). Fluorescence intensity is directly proportional to the number of viable cells. […] At least two independent experiments were performed in duplicate. The effect of trivalent antimonial [SbIII, potassium antimonyl tartrate trihydrate, Sigma-Aldrich, (St. Louis, MO, USA)] was included as positive control of the assay.

[3] = test system: J774.1 macrophages, healthy or infected with LTB0016, VE98MR or VE2000MM; assay: Nitric oxide (NO) production, Griess reaction; assay type: cell-based, murine; settings: non-infected and infected macrophages; 48 h; 18: 1 and 2 µM; 22: 2 and 4 µM
Method: Following a previously described procedure, infected and uninfected macrophage cultures were treated with test compounds to analyze their effect in Leishmania host cell nitric oxide (NO) production. J774.1 macrophages, at the third day of growth, were collected and seeded in flat-bottom 96-well culture plates, at a density of 1 × 10^6 cells mL^−1 (2 × 10^5 macrophages/well), in 200 µL of RPMIc. The plates were incubated for 2 h; once the supernatant was discarded, the medium was replaced with 200 µL of RPMIc mixed with infectious promastigotes in the stationary phase of growth (1 × 10^7 parasites/mL, 2 × 10^6 parasites/well), so that the ratio macrophage: parasites was 1:10 [41]. The plates were then incubated for 4 h, the medium was replaced with fresh RPMIc and the test compounds were applied, according to the different treatment groups. The plates were kept in incubation for 48 h, at 37 °C and 5% CO2.
From the culture supernatants, 50-µL aliquots were recovered and transferred to a new 96-well plate to perform the Griess reaction, 50 µL of Solution 1 [1% sulfanilamide dissolved in 2.5% phosphoric acid] was added, incubated for 5 min at RT and in the dark. […] Finally, the colorimetric reading was performed at 550 nm. […] Levels of NO2^− (expressed as µM of NO2^−) were calculated from a calibration curve constructed with increasing concentrations of sodium nitrite (NaNO2). […]

C=C(C)C1CCC2(C=NO)CCC3(C)C(CCC4C5(C)CCC(=NO)C(C)(C)C5CCC43C)C12 (stereo not drawn) [Compound 18]
Effect on plasma membrane potential (ΔΨp) [1]: significantly depolarized; also recorded: significantly depolarize the ΔΨp in all evaluated strains; also recorded: the collapse of the plasma membrane potential (ΔΨp) in a concentration-dependent way | growth inhibition [2]: at least 75% | Nitric oxide (NO) production by macrophages [3]: neither 18 nor 22 induced nitric oxide production in infected macrophages; also recorded: not capable of inducing NO production in any of the strains tested; also recorded: not capable of inducing NO production for any of the strains tested
